Measured values as given in publication PMC6941172 (Journal of medicinal chemistry, 2018).

Columns and labels:
Muscarinic M4 = target: T1, Muscarinic M4 (Homo sapiens, UniProt P08173); type: binding
T1 sequence (P08173 1-479): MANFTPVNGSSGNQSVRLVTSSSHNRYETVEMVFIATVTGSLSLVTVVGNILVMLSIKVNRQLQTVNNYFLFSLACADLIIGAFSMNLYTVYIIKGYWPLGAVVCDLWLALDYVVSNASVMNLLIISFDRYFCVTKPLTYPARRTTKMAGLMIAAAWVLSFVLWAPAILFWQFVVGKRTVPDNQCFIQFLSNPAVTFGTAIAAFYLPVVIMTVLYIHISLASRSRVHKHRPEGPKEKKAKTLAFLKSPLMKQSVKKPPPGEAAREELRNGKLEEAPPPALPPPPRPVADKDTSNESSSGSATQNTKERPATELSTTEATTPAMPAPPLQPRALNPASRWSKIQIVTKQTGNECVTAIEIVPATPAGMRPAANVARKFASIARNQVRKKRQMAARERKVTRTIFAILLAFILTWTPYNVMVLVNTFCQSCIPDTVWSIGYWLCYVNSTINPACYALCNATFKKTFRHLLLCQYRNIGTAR

Solubility assay = type: physicochemical; conditions: vs parent ligand 8a
[1] = Microsomal stability assay, mouse liver microsomes; type: in vitro ADME; conditions: vs respective parent (8a, 8i, 8n or 8k)
GABAAR α6β3γ2 subtype = GABAAR α6β3γ2 subtype (Rattus norvegicus, UniProt P18508+P30191+P63079); conditions: at 10 μM; cited from earlier work
Chain of GABAAR α6β3γ2 subtype (P30191 20-453): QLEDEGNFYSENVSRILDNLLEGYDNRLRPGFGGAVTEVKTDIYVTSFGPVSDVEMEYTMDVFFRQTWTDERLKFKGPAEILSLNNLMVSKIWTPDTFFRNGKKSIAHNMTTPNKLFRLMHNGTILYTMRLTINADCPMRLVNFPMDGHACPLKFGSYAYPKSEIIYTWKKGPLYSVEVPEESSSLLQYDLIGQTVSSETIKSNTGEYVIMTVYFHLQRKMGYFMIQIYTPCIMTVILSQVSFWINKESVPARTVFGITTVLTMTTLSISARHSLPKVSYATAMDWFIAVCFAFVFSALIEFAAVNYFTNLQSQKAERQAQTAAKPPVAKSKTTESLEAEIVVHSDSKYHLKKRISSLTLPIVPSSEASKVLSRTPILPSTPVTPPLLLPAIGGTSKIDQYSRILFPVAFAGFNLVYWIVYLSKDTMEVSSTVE
Chain of GABAAR α6β3γ2 subtype (P63079 26-473): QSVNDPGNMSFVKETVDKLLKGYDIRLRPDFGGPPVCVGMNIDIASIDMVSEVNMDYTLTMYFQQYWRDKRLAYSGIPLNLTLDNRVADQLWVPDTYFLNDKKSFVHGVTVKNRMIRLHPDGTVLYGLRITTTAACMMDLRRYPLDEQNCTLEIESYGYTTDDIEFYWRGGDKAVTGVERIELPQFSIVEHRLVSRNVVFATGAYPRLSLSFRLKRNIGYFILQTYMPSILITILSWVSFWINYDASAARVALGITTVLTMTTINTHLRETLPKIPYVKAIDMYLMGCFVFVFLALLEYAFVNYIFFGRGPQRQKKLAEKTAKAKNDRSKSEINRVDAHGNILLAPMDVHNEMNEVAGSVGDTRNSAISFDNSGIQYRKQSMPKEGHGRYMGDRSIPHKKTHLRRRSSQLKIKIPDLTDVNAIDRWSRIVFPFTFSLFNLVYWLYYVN
Chain of GABAAR α6β3γ2 subtype (P18508 39-466): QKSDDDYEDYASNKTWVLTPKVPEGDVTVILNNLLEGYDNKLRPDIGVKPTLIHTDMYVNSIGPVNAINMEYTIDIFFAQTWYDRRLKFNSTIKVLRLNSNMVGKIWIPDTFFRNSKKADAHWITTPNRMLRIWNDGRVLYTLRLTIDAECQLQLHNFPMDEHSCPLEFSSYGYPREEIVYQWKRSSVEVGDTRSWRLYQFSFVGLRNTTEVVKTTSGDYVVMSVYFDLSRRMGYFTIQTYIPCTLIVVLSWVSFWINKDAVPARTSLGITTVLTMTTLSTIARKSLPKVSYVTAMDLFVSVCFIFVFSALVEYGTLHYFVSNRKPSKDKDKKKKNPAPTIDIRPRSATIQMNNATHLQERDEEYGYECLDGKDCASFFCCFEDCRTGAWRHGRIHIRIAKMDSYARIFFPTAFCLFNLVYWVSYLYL

| Compound | Activity at Muscarinic M4 (Muscarinic M4) | Increase in water solubility (Solubility assay) | Increase in half-life (MLM) relative to parent ligand [1] | α6β3γ2 efficacy relative to 8a and 8n (GABAAR α6β3γ2 subtype) |
| --- | --- | --- | --- | --- |
| COc1ccc2c3nn(-c4ccc(OC)nc4)c(=O)c-3c[nH]c2c1 [Compound 13a, 7-Methoxy-2-(6-methoxypyridin-3-yl)-2,5-dihydro-3H-pyrazolo[4,3-c]quinolin-3-one] | showed activity | about 3 fold | slightly decreased half-life |  |
| COc1ccc(-n2nc3c4cc(Cl)ccc4[nH]cc-3c2=O)cc1 [Compound 8k, 8-Chloro-2-(4-methoxyphenyl)-2,5-dihydro-3H-pyrazolo[4,3-c]quinolin-3-one] |  |  |  | three times higher |
